Experimental data as given in BindingDB's records for doi:10.7270/Q2W957MN (The Scripps Research Institute Molecular Screening Center, 2010).

What follows are compounds tested against T1, Trans-activator protein BZLF1 (Epstein-Barr virus (strain B95-8), UniProt P03206) (assay: inhibition of BZLF1 ZTA DNA binding – biochemical, fluorescence polarization, Epstein-Barr virus, 1536-well, counter-screen for EBNA-1 inhibitor project, dose response (AID 2377)).
T1 sequence (P03206 whole entry): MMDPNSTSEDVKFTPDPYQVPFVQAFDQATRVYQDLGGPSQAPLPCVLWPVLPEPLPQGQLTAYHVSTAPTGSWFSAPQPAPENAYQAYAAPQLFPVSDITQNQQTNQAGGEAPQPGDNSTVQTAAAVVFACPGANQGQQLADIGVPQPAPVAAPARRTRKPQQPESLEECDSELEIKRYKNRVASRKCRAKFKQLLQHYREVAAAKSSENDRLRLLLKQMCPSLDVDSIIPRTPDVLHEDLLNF
With O=[N+]([O-])c1cccc(CN=Nc2nc(NCc3ccccc3)nc(N3CCOCC3)n2)c1 [SMR000174986] the IC50 was > 111 µM.
For COc1cc(-c2nc3n(n2)C(c2cccc(OC)c2OC)C2C(=O)CCCC2=N3)cc(OC)c1OC (configuration not stated), the IC50 was > 111 µM.
C=c1cc2[nH]c(=O)c(=Cc3cn(C)c4ccccc34)c(=N)n2o1 [(6Z)-7-imino-2-methyl-6-[(1-methylindol-3-yl)methylidene]-[1,2]oxazolo[2,3-a]pyrimidin-5-one] was tested, and the IC50 was > 111 µM.
With CN1C(=O)/C(=N\NC(=O)c2cc(-c3cccs3)nc3ccccc23)c2ccccc21 [SMR000242891] the IC50 was > 111 µM.
In the case of COc1cccc(-n2cc(O)c(-c3nc4ccccc4c(=O)[nH]3)c2N)c1 [MLS000075886], the IC50 is reported as > 111 µM.
With O=C(Nc1nc2cc3c(cc2s1)OCCO3)c1ccc(-n2c(O)ccc2O)cc1 the IC50 was 15.1 µM.
For COc1ccc(-n2cc(O)c(-c3nc4ccccc4s3)c2N)cc1, the IC50 was > 111 µM.
